From patent US4987139A, “FK-520 microbial transformation product” (Merck & Co., Inc., priority 1989, dated 1991)
“Also recorded” adds a separate entry of the source. Read-outs that look alike come from different tables or passages of the source. Values belong to the compound of their own block, whether it stands above or below them.

Legend:
[1] = reputed; EPO Publication No. 0184162; cited from earlier work
mouse T lymphocytes = experiment: T-cell proliferation assay (ionomycin plus PMA induced T-cell stimulation, tritiated thymidine uptake); assay type: cell-based, mouse (C57B1/6); details: for IC50: T-cell proliferation
Method: The principle of this assay is to measure the proliferation of mouse T lymphocytes stimulated with the combination of ionomycin plus PMA. A positive sample in this assay will inhibit T-cell proliferation, as indicated by reduced tritiated thymidine uptake.
Purified L-687,795, as prepared by HPLC above, was dissolved in absolute ethanol at 10 mg/ml.
Spleens from C57B1/6 mice were taken under sterile conditions and gently dissociated in ice-cold RPMI 1640 culture medium (GIBCO, Grand Island, N.Y.) supplemented with 10% heat-inactivated fetal calf serum (GIBCO). Cells were pelleted by centrifugation at 1500 rpm for 8 minutes. Contaminating red cells were removed by treating the pellet with ammonium chloride lysing buffer (GIBCO) for 2 minutes at 4° C. Cold medium was added and cells were again centrifuged at 1500 rpm for 8 minutes. T lymphocytes were then isolated by separation of the cell suspension on nylon wool columns as follows: Nylon wool columns were prepared by packing approximately 4 grams of washed and dried nylon wool into 20 ml plastic syringes. The columns were sterilized by autoclaving at 250° F for 30 minutes. Nylon wool columns were wetted with warm (37° C) culture medium and rinsed with the same medium. Washed spleen cells resuspended in warm medium were slowly applied to the nylon wool. The columns were then incubated in an upright position at 37° C for 1 hour. Non-adherent T lymphocytes were eluted from the columns with warm culture medium and the cell suspensions were spun as above.
Purified T lymphocytes were resuspended at 2.5×10^5 cells/ml in complete culture medium composed of RPMI 1640 medium with 10% heat-inactivated fetal calf serum, […], 1 mM sodium pyruvate, 2×10^-5 M 2-mercaptoethanol and 50 μg/ml gentamycin. Ionomycin was added at 250 ng/ml and PMA at 10 ng/ml. The cell suspension was immediately distributed into 96 well flat-bottom microculture plates (Costar) at 200 μl/well. The control, being the medium without test drug, and various below-indicated dilutions of the sample (above-describedpurified L-687,795) to be tested were then added in triplicate wells at 20 μl/well. L-683,590 was used as a standard. The culture plates were then incubated at 37° C. in a humidified atmosphere of 5% CO2 -95% air for 44 hours. The proliferation of T lymphocytes was assessed by measurement of tritiated thymidine incorporation. After 44 hours of culturing, the cells were pulse-labelled with 2 μ Ci/well of tritiated thymidine (NEN, Cambridge, MA). After another 4 hours of incubation, cultures were harvested on glass fiber filters using a multiple sample harvester. Radioactivity of filter discs corresponding to individual wells was measured by standard liquid scintillation counting methods (Betacounter). Mean counts per minute of replicate wells were calculated and the results expressed as percent inhibition of tritiated thymidine uptake (proliferation) as follows: [formula]
1. Mouse T cell cultures were pulsed with ^3 Hthymidine for 4 hours
prior to harvesting at 48 hours.

[2] = Solubility (physical characteristics); assay type: physicochemical; details: methanol

Structure (SMILES): C=CC[C@@H]1/C=C(\C)C[C@H](C)C[C@H](OC)[C@H]2O[C@@](O)(C(=O)C(=O)N3CCCC[C@H]3C(=O)O[C@H](/C(C)=C/[C@@H]3CC[C@@H](O)[C@H](OC)C3)[C@H](C)[C@@H](O)CC1=O)[C@H](C)C[C@@H]2OC [FK-506]
times more effective than cyclosporin [1]: 100 times

Structure (SMILES): CC[C@@H]1/C=C(\C)C[C@H](C)C[C@H](OC)[C@H]2O[C@@](O)(C(=O)C(=O)N3CCCC[C@H]3C(=O)O[C@H](/C(C)=C/[C@@H]3CC[C@@H](O)[C@H](OC)C3)[C@H](C)[C@@H](O)CC1=O)[C@H](C)C[C@@H]2OC [L-683,590, reference compound]
inhibition at 0.01 µg/mL (mouse T lymphocytes; Mus musculus, T-lymphocyte, 10 ng/ml, standard): 99%

Solubility [2]: Solubility in methanol
Structure (SMILES): CCC1C=C(C)CC(C)CC(O)C(O)C2CC(C)C(O)(O2)C(=O)C(=O)N2CCCCC2C(=O)OC(C(C)=CC2CCC(O)C(O)C2)C(C)C(O)CC1=O [L-687,795]
Inhibition of proliferation on addition of recombinant human IL2 (mouse T lymphocytes; 50 units/m recombinant human IL2 added at initiation of culture): reversed
inhibition at 0.39 µg/mL (mouse T lymphocytes; Mus musculus, T-lymphocyte, 390 ng/ml, ionomycin + PMA, 48 h): 0%
inhibition at 0.57 µg/mL (mouse T lymphocytes; Mus musculus, T-lymphocyte, 570 ng/ml, ionomycin + PMA, 48 h): 2%
inhibition at 0.87 µg/mL (mouse T lymphocytes; Mus musculus, T-lymphocyte, 870 ng/ml, ionomycin + PMA, 48 h): 29%
inhibition at 1.3 µg/mL (mouse T lymphocytes; Mus musculus, T-lymphocyte, 1,300 ng/ml, ionomycin + PMA, 48 h): 60%
inhibition at 1.9 µg/mL (mouse T lymphocytes; Mus musculus, T-lymphocyte, 1,900 ng/ml, ionomycin + PMA, 48 h): 78%
inhibition at 2.9 µg/mL (mouse T lymphocytes; Mus musculus, T-lymphocyte, 2,900 ng/ml, ionomycin + PMA, 48 h): 81%
inhibition at 4.4 µg/mL (mouse T lymphocytes; Mus musculus, T-lymphocyte, 4,400 ng/ml, ionomycin + PMA, 48 h): 88%
inhibition at 6.6 µg/mL (mouse T lymphocytes; Mus musculus, T-lymphocyte, 6,600 ng/ml, ionomycin + PMA, 48 h): 90%
inhibition at 10 µg/mL (mouse T lymphocytes; Mus musculus, T-lymphocyte, 10,000 ng/ml, ionomycin + PMA, 48 h): 91%
IC50 (mouse T lymphocytes; Mus musculus, T-lymphocyte, general range, read-out: IC50, generally in the range of): 1000 to 1400 nM
IC50 (mouse T lymphocytes; Mus musculus, T-lymphocyte, read-out: IC50): 1190 nM
inhibition of T-cell activation / immunosuppressive activity by the T-cell proliferation assay (mouse T lymphocytes; qualitative): positive inhibition of T-cell activation; also recorded: positive immunosuppressive activity
